Measured values reported in patent publication US8119632B2, “Bicyclic amide derivatives for enhancing glutamatergic synaptic responses” (Cortex Pharmaceuticals, Inc., priority 2007, dated 2012).

How the values were obtained:
AMPA receptor = test: In vivo electrophysiology: amplitude of field EPSP in dentate gyrus of anesthetized animals; set-up: species or system rat; details: for In vivo Electrophysiology: % increase in the amplitude of the field EPSP in the dentate gyrus of rat: 10 mpk i.p.
Protocol: (§1) The electrophysiological effects of the invention compounds were tested in vivo in anesthetized animals according to the following procedures. Animals are maintained under anesthesia by phenobarbital administered using a Hamilton syringe pump. Stimulating and recording electrodes are inserted into the perforant path and dentate gyrus of the hippocampus, respectively. Once electrodes are implanted, a stable baseline of evoked responses are elicited using single monophasic pulses (100 μs pulse duration) delivered at 3/min to the stimulating electrode. Field EPSPs are monitored until a stable baseline is achieved (about 20-30 min), after which a solution of test compound is injected intraperitoneally and evoked field potentials are recorded. Evoked potentials were recorded for approximately 2 h following drug administration or until the amplitude of the field EPSP returns to baseline. In the latter instance, it is common that an iv administration is also carried out with an appropriate dose of the same test compound. Invention compounds were assayed in the in vivo electrophysiology assay described above and data for representative test compounds is shown in the Table.
The electrophysiological effects of invention compounds were tested in vivo in anesthetized animals according to the following procedures.
as §1, with “Animals” for “The electrophysiological effects of the invention compounds were tested in vivo in anesthetized animals according to the following procedures. Animals”, “are” for “were”, “compound.” for “compound. Invention compounds were assayed in the in vivo electrophysiology assay described above and data for representative test compounds is shown in the Table.”

SMILES	In vivo Electrophysiology: % increase in the amplitude of the field EPSP in the dentate gyrus of rat (AMPA receptor)	melting point	increase in amplitude of the field EPSP (AMPA receptor; rat dentate gyrus, 50 mg/kg i.p.)
O=C(c1ccc2nonc2c1)N1C2CCC1COC2 [Example 1, [2,1,3]-Benzoxadiazol-5-yl(3-oxa-8-azabicyclo[3.2.1]oct-8-yl)methanone]	17%	139 to 140 °C	
O=C(c1ccc2nonc2c1)N1C2COCC1COC2 [Example 3, [2,1,3]-Benzoxadiazol-5-yl(3,7-dioxa-9-azabicyclo[3.3.1]non-9-yl)methanone]	15%	197 to 199 °C	
O=C(c1ccc2nonc2c1)N1C2CCCC1COC2 [Example 2, [2,1,3]-Benzoxadiazol-5-yl(3-oxa-9-azabicyclo[3.3.1]non-9-yl)methanone]	16%	128 to 130 °C	
O=C(c1ccc2nccnc2c1)N1CCCCC1 [CX516, 1-(quinoxalin-6-ylcarbonyl)piperdine, reference compound]			9%
